Read-outs that look alike come from different tables or passages of the source.
Key:
Assay type in all cases: cell-based
[1] = test system: MDA-MB-231 (breast cancer); assay: Antiproliferative activity (CCK-8 cell viability), MDA-MB-231; details: Homo sapiens, 72 h; for inhibition at 3.3 µM: Compound concentration: 3.3 μM; for inhibition at 10 µM: Compound concentration: 10 μM; for inhibition at 30 µM: Compound concentration: 30 μM
Procedure, shortened: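 In this CCK-8 viability assay, MDA-MB-231 cells maintained in Dulbecco's modified Eagle's medium containing 10% fetal bovine serum were placed in 96-well plates (2,000-5,000 cells/well) and treated with compound for 72 h at 37° C. A 4 h incubation with 10 μL CCK-8 followed, plates were read at 450 nm, and viability was expressed against DMSO vehicle wells across replicates.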

HepG2 (liver cancer) = assay: Antiproliferative activity (CCK-8 cell viability), HepG2; details: Homo sapiens, 72 h, read-out: Antiproliferative activity in cancerous cells, HepG2 (inhibition of cell growth); for inhibition at 3.3 µM: Compound concentration: 3.3 μM; for inhibition at 10 µM: Compound concentration: 10 μM; for inhibition at 30 µM: Compound concentration: 30 μM
Procedure, shortened: (§1)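 Cells were seeded at 2,000-5,000/well (HeLa in MEM, HepG2 and SW480 in DMEM, A549 in F-12K, all with 10% FBS) and treated with compound at 3.3, 10 or 30 μM for 72 h at 37° C. CCK-8 was added for 4 h, absorbance was read at 450 nm, and viability was expressed relative to DMSO-treated wells.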

SW480 (colon cancer) = assay: Antiproliferative activity (CCK-8 cell viability), SW480; details: Homo sapiens, 72 h; for inhibition at 3.3 µM: Compound concentration: 3.3 μM; for inhibition at 10 µM: Compound concentration: 10 μM; for inhibition at 30 µM: Compound concentration: 30 μM
Procedure, shortened: as §1

[2] = test system: B16F10 (malignant melanoma); assay: Antiproliferative activity (CCK-8 cell viability), B16F10; details: Mus musculus, 72 h, read-out: Antiproliferative activity in cancerous cells, B16F10 (inhibition of cell growth); for inhibition at 3.3 µM: B16-F10, Compound concentration: 3.3 μM; for inhibition at 10 µM: B16-F10, Compound concentration: 10 μM; for inhibition at 30 µM: B16-F10, Compound concentration: 30 μM
Procedure, shortened: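 Attached B16F10 cells in 96-well plates were incubated with compound at 37° C for 72 h, followed by 10 μL CCK-8 reagent per well and a further 4 h incubation. A multi-well plate reader measured absorbance at 450 nm. Percent viability across replicates was calculated against DMSO vehicle-treated cells.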

[3] = test system: A431 (epidermoid carcinoma); assay: Antiproliferative activity (CCK-8 cell viability), A431; details: Homo sapiens, 72 h; for inhibition at 3.3 µM: A-431, Compound concentration: 3.3 μM; for inhibition at 10 µM: A-431, Compound concentration: 10 μM; for inhibition at 30 µM: A-431, Compound concentration: 30 μM
Procedure, shortened: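 Cell viability of compound-treated A431 cells was measured with a Cell Counting Kit-8. Each well received 10 μL of CCK-8 after 72 h of compound exposure, followed by 4 h incubation at 37° C. and a 450 nm plate-reader measurement. Percent viability was calculated relative to DMSO controls across replicates.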

[4] = test system: A549 (lung adenocarcinoma); assay: Antiproliferative activity (CCK-8 cell viability), A549; details: Homo sapiens, 72 h; for inhibition at 3.3 µM: Compound concentration: 3.3 μM; for inhibition at 10 µM: Compound concentration: 10 μM; for inhibition at 30 µM: Compound concentration: 30 μM
Procedure, shortened: as §1

HeLa (cervical cancer) = assay: Antiproliferative activity (CCK-8 cell viability), HeLa; details: Homo sapiens, 72 h, read-out: Antiproliferative activity in cancerous cells, HELA (inhibition of cell growth); for inhibition at 3.3 µM: Compound concentration: 3.3 μM; for inhibition at 10 µM: Compound concentration: 10 μM; for inhibition at 30 µM: Compound concentration: 30 μM
Procedure, shortened: as §1

[5] = read-out: Antiproliferative activity in cancerous cells, MDA-MB-231 (inhibition of cell growth)
[6] = read-out: Antiproliferative activity in cancerous cells, SW480 (inhibition of cell growth)
[7] = read-out: Antiproliferative activity in cancerous cells, A431 (inhibition of cell growth)
[8] = read-out: Antiproliferative activity in cancerous cells, A549 (inhibition of cell growth)

SMILES	inhibition at 3.3 µM [1, 5]	inhibition at 10 µM [1, 5]	inhibition at 30 µM [1, 5]	inhibition at 3.3 µM (HepG2 (liver cancer))	inhibition at 10 µM (HepG2 (liver cancer))	inhibition at 30 µM (HepG2 (liver cancer))	inhibition at 3.3 µM (SW480 (colon cancer); [6])	inhibition at 10 µM (SW480 (colon cancer); [6])	inhibition at 30 µM (SW480 (colon cancer); [6])	inhibition at 3.3 µM [2]	inhibition at 10 µM [2]	inhibition at 30 µM [2]	inhibition at 3.3 µM [3, 7]	inhibition at 10 µM [3, 7]	inhibition at 30 µM [3, 7]	inhibition at 3.3 µM [4, 8]	inhibition at 10 µM [4, 8]	inhibition at 30 µM [4, 8]	inhibition at 3.3 µM (HeLa (cervical cancer))	inhibition at 10 µM (HeLa (cervical cancer))	also measured
CC1=C(CC(=O)O)c2cc(I)ccc2/C1=C/c1ccc(COCc2ccc(F)cc2)cc1 [E18, (E)-2-(1-(4-(((4-Fluorobenzyl)oxy)methyl)benzylidene)-5-iodo-2-methyl-1H-inden-3-yl)acetic acid]	< 30%	≥ 50%	≥ 50%	< 30%	≥ 50%	≥ 50%	< 30%	≥ 50%	≥ 50%	30 to 50%	≥ 50%	≥ 50%	≥ 50%	≥ 50%	≥ 50%	< 30%	≥ 50%	≥ 50%	≥ 50%	≥ 50%	inhibition at 30 µM (HeLa (cervical cancer)): ≥ 50%
CCc1ccc2c(c1)C(CC(=O)O)=C(C)/C2=C/c1ccc(COc2ccc(F)cc2)cc1 [B52, (Z)-2-(5-Ethyl-1-(4-((4-fluorophenoxy)methyl)benzylidene)-2-methyl-1H-inden-3-yl)acetic acid]	≥ 50%	≥ 50%	–	< 30%	≥ 50%	–	30 to 50%	≥ 50%	–	≥ 50%	≥ 50%	–	30 to 50%	≥ 50%	–	30 to 50%	≥ 50%	–	30 to 50%	≥ 50%	–
CC1=C(CC(=O)O)c2cc(Cl)ccc2/C1=C\c1cccc(Oc2ccc(C#N)cc2)c1 [C94, (Z)-2-(5-Chloro-1-(3-(4-cyanophenoxy)benzylidene)-2-methyl-1H-inden-3-yl)acetic acid]	< 30%	30 to 50%	–	< 30%	≥ 50%	–	< 30%	< 30%	–	30 to 50%	30 to 50%	–	≥ 50%	≥ 50%	–	< 30%	≥ 50%	–	< 30%	≥ 50%	–
CCc1ccc(Oc2ccc(/C=C3\C(C)=C(CC(=O)O)c4cc(Cl)ccc43)cc2)cc1 [E31, (E)-2-(5-Chloro-1-(4-(4-ethylphenoxy)benzylidene)-2-methyl-1H-inden-3-yl)acetic acid]	≥ 50%	≥ 50%	≥ 50%	< 30%	≥ 50%	≥ 50%	30 to 50%	30 to 50%	≥ 50%	30 to 50%	≥ 50%	≥ 50%	≥ 50%	≥ 50%	≥ 50%	≥ 50%	≥ 50%	≥ 50%	≥ 50%	≥ 50%	inhibition at 30 µM (HeLa (cervical cancer)): ≥ 50%
COc1ccc2c(c1)C(CC(=O)O)=C(C)/C2=C/c1ccc(Oc2ccc(Cl)cc2)cc1C [C74, (Z)-2-(1-(4-(4-Chlorophenoxy)-2-methylbenzylidene)-5-methoxy-2-methyl-1H-inden-3-yl)acetic acid]	≥ 50%	≥ 50%	–	< 30%	≥ 50%	–	< 30%	30 to 50%	–	≥ 50%	≥ 50%	–	≥ 50%	≥ 50%	–	30 to 50%	≥ 50%	–	< 30%	≥ 50%	–
CC1=C(CC(=O)O)c2cc(F)ccc2/C1=C\c1ccc(C(=O)c2cc3ccccc3o2)cc1 [C309, (Z)-2-(1-(4-(Benzofuran-2-carbonyl)benzylidene)-5-fluoro-2-methyl-1H-inden-3-yl)acetic acid]	30 to 50%	30 to 50%	≥ 50%	< 30%	≥ 50%	≥ 50%	< 30%	≥ 50%	≥ 50%	< 30%	≥ 50%	≥ 50%	30 to 50%	≥ 50%	≥ 50%	< 30%	30 to 50%	≥ 50%	30 to 50%	≥ 50%	inhibition at 30 µM (HeLa (cervical cancer)): ≥ 50%
CCc1ccc2c(c1)C(CC(=O)O)=C(C)/C2=C/c1cccc(Oc2ccc(C(F)(F)F)cc2)c1 [C106, (Z)-2-(5-Ethyl-2-methyl-1-(3-(4-(trifluoromethyl)phenoxy)benzylidene)-1H-inden-3-yl)acetic acid]	≥ 50%	≥ 50%	–	≥ 50%	≥ 50%	–	≥ 50%	≥ 50%	–	≥ 50%	≥ 50%	–	30 to 50%	≥ 50%	–	≥ 50%	≥ 50%	–	≥ 50%	≥ 50%	–
CC1=C(CC(=O)O)c2cc(Cl)ccc2/C1=C\c1ccc(COc2ccc(F)cc2)cc1 [B57, (Z)-2-(5-Chloro-1-(4-((4-fluorophenoxy)methyl)benzylidene)-2-methyl-1H-inden-3-yl)acetic acid]	< 30%	< 30%	–	< 30%	30 to 50%	–	< 30%	< 30%	–	≥ 50%	30 to 50%	–	30 to 50%	30 to 50%	–	< 30%	< 30%	–	< 30%	≥ 50%	inhibition at 30 µM ([1]; read-out: Antiproliferative activity in cancerous cells, MDA-MB-231): < 30%; inhibition at 30 µM (SW480 (colon cancer); read-out: Antiproliferative activity in cancerous cells, SW480): < 30%; inhibition at 30 µM ([3]; read-out: Antiproliferative activity in cancerous cells, A431): 30 to 50%; inhibition at 30 µM ([4]; read-out: Antiproliferative activity in cancerous cells, A549): < 30%
